Experimental data: the supplement of paper PMC10307832

What was measured:
Assay in all cases: relative viability (nuclei count vs DMSO), 5 days (fraction); higher = more cells survive
Obatoclax + OSI-027 = compound: COC1=CC(c2cc3ccccc3[nH]2)=N/C1=C\c1[nH]c(C)cc1C [Obatoclax] + COc1cccc2cc(-c3nc([C@H]4CC[C@H](C(=O)O)CC4)n4ncnc(N)c34)[nH]c12 [OSI-027] (partner 0.5 µM)
Procedure, shortened: (§1)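 Relative viability divides the nuclei count in treated wells by that in vehicle wells. Lung cancer cell lines were seeded in 1536-well plates, dosed by pin tool the next day, and fixed and stained after 5 days in one step with final 0.05% Triton X-100, 1% formaldehyde and 1 ug/ml Hoechst. Dosing was a single drug or a fixed anchor-drug dose plus five library-drug doses (not always all listed) in √10 steps, and values are medians of duplicate plates imaged at 4×.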

[1] = compound: CC1=CC(=NN1)NC2=CC(=NC(=N2)/C=C/C3=CC=CC=C3)N4CCN(CC4)C + CCNC(=O)c1noc(-c2cc(C(C)C)c(O)cc2O)c1-c1ccc(CN2CCOCC2)cc1 [Luminespib] (partner 0.01 µM)
Procedure, shortened: as §1

Bortezomib + Vorinostat = compound: CC(C)C[C@H](NC(=O)[C@H](Cc1ccccc1)NC(=O)c1cnccn1)B(O)O [Bortezomib] + O=C(CCCCCCC(=O)Nc1ccccc1)NO [Vorinostat] (partner 1 µM)
Procedure, shortened: as §1

[2] = compound: CC1=CC(=NN1)NC2=CC(=NC(=N2)/C=C/C3=CC=CC=C3)N4CCN(CC4)C + COc1cccc2cc(-c3nc([C@H]4CC[C@H](C(=O)O)CC4)n4ncnc(N)c34)[nH]c12 [OSI-027] (partner 0.5 µM)
Procedure, shortened: as §1

Cell Line	relative viability (Obatoclax + OSI-027; first compound 0.01 µM)	relative viability (Obatoclax + OSI-027; first compound 0.03162 µM)	relative viability (Obatoclax + OSI-027; first compound 0.1 µM)	relative viability (Obatoclax + OSI-027; first compound 0.3162 µM)	relative viability (Obatoclax + OSI-027; first compound 1 µM)	relative viability ([1]; first compound 0.08 µM)	relative viability ([1]; first compound 0.253 µM)	relative viability ([1]; first compound 0.8 µM)	relative viability ([1]; first compound 2.53 µM)	relative viability ([1]; first compound 8 µM)	relative viability (Bortezomib + Vorinostat; first compound 0.0002 µM)	relative viability (Bortezomib + Vorinostat; first compound 0.000632 µM)	relative viability (Bortezomib + Vorinostat; first compound 0.002 µM)	relative viability (Bortezomib + Vorinostat; first compound 0.006325 µM)	relative viability (Bortezomib + Vorinostat; first compound 0.02 µM)	relative viability ([2]; first compound 0.08 µM)	relative viability ([2]; first compound 0.253 µM)	relative viability ([2]; first compound 0.8 µM)	relative viability ([2]; first compound 2.53 µM)	relative viability ([2]; first compound 8 µM)
NCI-H2023	0.42	0.381	0.488	0.226	0.102	0.741	1.12	0.524	0.0645	0.0624	0.813	0.423	0.618	0.078	0.0655	0.374	0.45	0.341	0.0653	0.041
NCI-H1666	0.881	0.89	0.95	0.443	0.5	0.987	1.01	1.02	0.985	0.328	1.03	1.04	1.11	0.539	0.5	0.822	0.921	0.86	0.79	0.432
NCI-H1975	0.801	0.665	–	0.511	0.177	0.178	0.28	0.199	0.151	0.118	0.661	0.655	0.154	0.123	0.135	0.676	0.746	0.629	0.15	0.0749
NCI-H1793	0.293	0.286	0.248	0.275	0.298	0.16	0.184	0.151	0.136	0.116	0.689	–	0.682	0.381	0.125	0.301	0.204	0.26	0.107	0.0726
NCI-H1355	0.391	0.386	0.462	0.422	0.399	0.744	0.644	0.682	0.47	0.129	0.632	0.657	0.696	0.416	0.121	0.378	0.374	0.389	0.213	0.105
SW 900	0.54	0.512	0.709	0.383	0.258	0.164	0.136	0.159	0.168	0.11	0.482	0.54	0.163	0.169	0.173	0.493	0.58	0.489	0.259	0.0615
NCI-H2170	0.684	0.73	0.647	0.769	0.754	0.705	0.692	0.688	0.444	0.14	0.746	0.722	0.972	0.173	0.121	0.759	0.728	0.683	0.377	0.189
EKVX	0.708	0.74	0.797	0.561	0.667	0.852	0.981	0.984	0.758	0.261	0.68	0.805	0.65	0.518	0.198	0.699	0.845	0.664	0.611	0.3
RERF-LC-KJ	0.578	0.554	0.553	0.475	0.268	1.33	1.2	0.944	0.269	0.264	0.661	0.726	0.624	0.463	0.219	0.532	0.656	0.53	0.238	0.179
NCI-H1755	0.768	0.709	0.667	0.742	0.763	0.496	0.416	0.748	0.346	0.157	0.813	0.644	0.748	0.245	0.208	0.724	0.715	0.648	0.363	0.209
NCI-H661	0.689	0.704	0.709	0.649	0.407	0.907	–	0.919	0.55	0.321	0.747	0.74	0.758	0.269	0.295	0.774	–	0.599	0.39	0.217
LOU-NH91	0.727	0.719	0.566	0.714	0.683	0.391	0.402	0.322	0.299	0.228	0.88	0.816	0.413	0.313	0.359	0.767	0.842	0.742	0.699	0.507
LXF-289	0.78	0.77	0.68	0.765	0.691	0.658	0.755	0.672	0.33	0.104	0.732	0.734	0.896	0.0875	0.0888	0.826	0.834	0.673	0.42	0.0972
HCC-44	0.577	0.422	0.219	0.441	0.333	1.04	1.53	0.993	0.842	0.164	1.07	1.07	1.1	0.557	0.328	0.615	0.49	0.633	0.292	0.144
HARA	0.456	0.555	0.444	0.438	0.168	0.699	0.791	0.348	0.139	0.043	0.512	0.672	0.175	0.0466	0.0668	0.361	0.474	0.649	0.252	0.0476
201T	0.762	0.786	0.773	0.748	0.822	1.01	1.04	1.01	0.947	0.266	0.964	0.936	0.993	0.916	0.328	0.718	0.756	0.803	0.531	0.112
LC-2-ad	0.838	0.838	0.529	0.724	0.655	1.11	1.23	0.693	0.611	0.204	0.74	0.68	0.665	0.209	0.185	0.808	0.867	0.753	0.336	0.184

Cell Line	relative viability (Obatoclax + OSI-027; first compound 0.01 µM)	relative viability (Obatoclax + OSI-027; first compound 0.03162 µM)	relative viability (Obatoclax + OSI-027; first compound 0.1 µM)	relative viability (Obatoclax + OSI-027; first compound 0.3162 µM)	relative viability (Obatoclax + OSI-027; first compound 1 µM)	relative viability ([1]; first compound 0.08 µM)	relative viability ([1]; first compound 0.253 µM)	relative viability ([1]; first compound 0.8 µM)	relative viability ([1]; first compound 2.53 µM)	relative viability ([1]; first compound 8 µM)	relative viability (Bortezomib + Vorinostat; first compound 0.0002 µM)	relative viability (Bortezomib + Vorinostat; first compound 0.000632 µM)	relative viability (Bortezomib + Vorinostat; first compound 0.002 µM)	relative viability (Bortezomib + Vorinostat; first compound 0.006325 µM)	relative viability (Bortezomib + Vorinostat; first compound 0.02 µM)	relative viability ([2]; first compound 0.08 µM)	relative viability ([2]; first compound 0.253 µM)	relative viability ([2]; first compound 0.8 µM)	relative viability ([2]; first compound 2.53 µM)	relative viability ([2]; first compound 8 µM)
NCI-H596	0.837	0.602	0.65	0.504	0.425	1.04	0.927	0.777	0.402	0.2	0.506	0.614	0.365	0.219	0.173	0.633	0.72	0.671	0.34	0.247
NCI-H1437	0.868	0.889	0.835	0.859	0.752	1.11	1.13	1.13	0.996	0.53	0.782	0.875	0.555	0.219	0.172	0.84	0.89	0.947	0.737	0.164
NCI-H727	0.776	0.554	0.857	0.61	0.453	0.467	–	0.264	0.252	0.208	1.29	1.06	1.36	1.1	1.02	0.608	0.485	0.678	0.398	0.278
PC-3 [JPC-3]	0.808	0.728	0.791	0.731	0.752	0.684	0.834	0.736	0.686	0.549	0.675	0.82	0.444	0.22	0.203	0.766	0.683	0.83	0.67	0.59
SW 1573	0.612	0.559	0.662	0.219	0.115	0.421	0.259	0.179	0.105	0.0707	0.676	1.02	0.313	0.0435	0.0242	0.549	0.511	0.569	0.0922	0.0676
NCI-H2228	0.653	0.507	0.524	0.318	0.152	0.178	0.143	0.139	0.128	0.054	0.694	0.73	0.101	0.124	0.108	0.566	0.595	0.557	0.0751	0.0577
NCI-H1650	0.677	0.552	0.644	0.386	0.225	0.19	0.184	0.206	0.203	0.183	0.575	0.58	0.151	0.139	0.155	0.645	0.782	0.624	0.154	0.0984
NCI-H1944	0.457	0.383	0.381	0.415	0.448	0.63	1.06	0.815	0.553	0.164	0.563	0.546	0.633	0.333	0.148	0.437	0.4	0.394	0.272	0.145
NCI-H1792	0.793	0.716	–	0.624	0.932	0.407	0.375	0.412	0.319	0.122	–	–	–	–	–	0.678	0.777	0.673	0.519	0.206
COR-L 105	0.741	0.906	0.803	0.518	0.301	0.553	0.784	0.736	0.654	0.197	0.846	0.306	0.824	0.276	0.271	0.773	0.834	0.678	0.255	0.178
LU99A	0.291	0.282	0.267	0.312	0.298	0.254	0.235	0.192	0.197	0.161	0.479	0.427	0.533	0.464	0.152	0.292	0.327	0.28	0.256	0.155
NCI-H1623	0.429	0.434	0.47	0.389	0.471	0.579	0.493	0.48	0.494	0.305	–	–	–	–	–	0.412	0.41	0.411	0.377	0.282
IA-LM	–	–	–	–	–	–	–	–	–	–	0.955	0.788	0.806	0.674	0.008	–	–	–	–	–
HCC-366	0.961	0.847	0.827	0.821	0.208	–	–	–	–	–	0.352	0.377	0.33	0.113	0.026	0.833	0.618	0.875	0.0773	0.0341
HCC-78	0.393	0.341	0.586	0.539	0.378	–	–	–	–	–	0.453	0.447	0.263	0.281	0.276	0.325	0.357	0.387	0.343	0.198
NCI-H1563	0.741	0.797	0.87	0.705	0.619	0.498	0.554	0.537	0.553	0.434	–	–	–	–	–	0.776	0.813	0.722	0.65	0.431
NCI-H1648	0.253	0.226	0.413	0.269	0.232	–	–	–	–	–	0.295	0.395	0.268	0.264	0.241	0.257	0.272	0.26	0.263	0.258
